The text below walks through data of patent US7498023B2, “Blockade of T cell migration into epithelial GVHD target tissues as an approach to achieving anti-tumor effects against lymphohematopoietic malignancies without GVHD” (The General Hospital Corporation, priority 2000, dated 2009).

For data set [1] the following is noted: Cy 50 mg/kg daily x4 with ATG, thymic irradiation, BMT; five subjects.
Excerpt: Intravenous cyclosporine (CYA) was given beginning on day −1 with conversion to p.o. CYA when tolerated. Donor leukocytes (DLI) were given on days +35, (10^7/kg CD3+ cells) and +56 (5×10^7/kg CD3+ cells) if no GVHD was present. Median subject age was 30 (range 20-45) years. All subjects had disease progression during salvage chemotherapy or radiation therapy. […] Chimerism analyses of weekly peripheral blood samples and pre-BMT, day +28, and day +100 bone marrow aspirate samples have been performed by variable number of tandem repeat sequence (VNTR) analysis (HLA matched BMT) or flow cytometry (HLA mismatched BMT).
For data set [2] the following is noted: cited from earlier work.

As for `O=P1(N(CCCl)CCCl)NCCCO1` (centres unmarked) [cyclophosphamide], the toxicities observed result in data set [1] is given as “reversible Cy cardiotoxicity (n=1)”. Besides, the “subjects developing a diffuse maculopapular rash” value in data set [2] (24-72 hours following cyclophosphamide) was 10-20%. In addition, in data set [2] (at this dose level (50 mg/kg x4)), the “subjects with some hematuria” value is listed as “Approximately 50%”. Also, in data set [2] (cyclophosphamide 50 mg/kg on days -6, -5, -4, -3), the “incidence of hemorrhagic cystitis” value is 20%. Also, the “total dose at which fatal cardiac failure due to hemorrhagic necrosis occurs” value in data set [2] (total dose (7.6 grams/m^2)) was no less than 200 mg/kg.
